Measured values reported in ChEMBL document CHEMBL3813672, “Discovery of anti-cancer activity for benzo[1,2,4]triazin-7-ones: Very strong correlation to pleurotin and thioredoxin reductase inhibition” (Bioorg Med Chem, 2016).

Key:
CCRF-CEM = assay: Growth inhibition of human CCRF-CEM cells assessed as cell growth at 10 uM incubated for 48 hrs by sulforhodamine B assay relative to control; assay type: functional; conditions: read-out: Activity
[1] = Growth inhibition of human HL-60(TB) cells assessed as cell growth at 10 uM incubated for 48 hrs by sulforhodamine B assay relative to control; assay type: functional; conditions: HL-60, 48 h, read-out: Activity
K562 = assay: Growth inhibition of human K562 cells assessed as cell growth at 10 uM incubated for 48 hrs by sulforhodamine B assay relative to control; assay type: functional; conditions: K562, 48 h, read-out: Activity
[2] = Growth inhibition of human RPMI8226 cells assessed as cell growth at 10 uM incubated for 48 hrs by sulforhodamine B assay relative to control; assay type: functional; conditions: RPMI-8226, 48 h, read-out: Activity
SR = assay: Growth inhibition of human SR cells assessed as cell growth at 10 uM incubated for 48 hrs by sulforhodamine B assay relative to control; assay type: functional; conditions: read-out: Activity
A549 = assay: Growth inhibition of human A549/ATCC cells assessed as cell growth at 10 uM incubated for 48 hrs by sulforhodamine B assay relative to control; assay type: functional; conditions: A549, 48 h, read-out: Activity
[3] = Growth inhibition of human HOP62 cells assessed as cell growth at 10 uM incubated for 48 hrs by sulforhodamine B assay relative to control; assay type: functional; conditions: HOP-62, 48 h, read-out: Activity
[4] = Growth inhibition of human HOP92 cells assessed as cell growth at 10 uM incubated for 48 hrs by sulforhodamine B assay relative to control; assay type: functional; conditions: HOP-92, 48 h, read-out: Activity
NCI-H23 = assay: Growth inhibition of human NCI-H23 cells assessed as cell growth at 10 uM incubated for 48 hrs by sulforhodamine B assay relative to control; assay type: functional; conditions: NCI-H23, 48 h, read-out: Activity
NCI-H322M = assay: Growth inhibition of human NCI-H322M cells assessed as cell growth at 10 uM incubated for 48 hrs by sulforhodamine B assay relative to control; assay type: functional; conditions: read-out: Activity
[5] = Growth inhibition of human HCT15 cells assessed as cell growth at 10 uM incubated for 48 hrs by sulforhodamine B assay relative to control; assay type: functional; conditions: HCT-15, 48 h, read-out: Activity
[6] = Growth inhibition of human SW620 cells assessed as cell growth at 10 uM incubated for 48 hrs by sulforhodamine B assay relative to control; assay type: functional; conditions: SW-620, 48 h, read-out: Activity
[7] = Cytotoxicity against human GM00637 cells assessed as reduction in cell viability after 72 hrs by MTT assay; assay type: cell-based; conditions: GM00637, 72 h
MCF7 [8] = assay: Cytotoxicity against human MCF7 cells assessed as reduction in cell viability after 72 hrs by MTT assay; assay type: functional, cell-based; conditions: MCF7, 72 h
[9] = Quasi-reversible one electron redox potential in dichloromethane containing 0.1 M TBAP assessed as assessed as redox potential during -1/-2 redox transition at 2 mmol measured at 100 mV/s in presence of Fc/Fc by cyclic voltammetry; assay type: physicochemical
[10] = Growth inhibition of human SF268 cells assessed as cell growth at 10 uM incubated for 48 hrs by sulforhodamine B assay relative to control; assay type: functional; conditions: SF-268, 48 h, read-out: Activity
[11] = Growth inhibition of human SF295 cells assessed as cell growth at 10 uM incubated for 48 hrs by sulforhodamine B assay relative to control; assay type: functional; conditions: SF-295, 48 h, read-out: Activity
[12] = Growth inhibition of human SF539 cells assessed as cell growth at 10 uM incubated for 48 hrs by sulforhodamine B assay relative to control; assay type: functional; conditions: SF-539, 48 h, read-out: Activity
[13] = Growth inhibition of human SNB75 cells assessed as cell growth at 10 uM incubated for 48 hrs by sulforhodamine B assay relative to control; assay type: functional; conditions: SNB-75, 48 h, read-out: Activity
U-251 = assay: Growth inhibition of human U251 cells assessed as cell growth at 10 uM incubated for 48 hrs by sulforhodamine B assay relative to control; assay type: functional; conditions: U-251, 48 h, read-out: Activity
[14] = Growth inhibition of human LOXIMVI cells assessed as cell growth at 10 uM incubated for 48 hrs by sulforhodamine B assay relative to control; assay type: functional; conditions: LOX IMVI, read-out: Activity
M14 = assay: Growth inhibition of human M14 cells assessed as cell growth at 10 uM incubated for 48 hrs by sulforhodamine B assay relative to control; assay type: functional; conditions: M14, 48 h, read-out: Activity
SK-MEL-2 = assay: Growth inhibition of human SK-MEL-2 cells assessed as cell growth at 10 uM incubated for 48 hrs by sulforhodamine B assay relative to control; assay type: functional; conditions: SK-MEL-2, 48 h, read-out: Activity
[15] = Growth inhibition of human UACC257 cells assessed as cell growth at 10 uM incubated for 48 hrs by sulforhodamine B assay relative to control; assay type: functional; conditions: UACC-257, 48 h, read-out: Activity
[16] = Growth inhibition of human UACC62 cells assessed as cell growth at 10 uM incubated for 48 hrs by sulforhodamine B assay relative to control; assay type: functional; conditions: UACC-62, 48 h, read-out: Activity
[17] = Growth inhibition of human IGROV1 cells assessed as cell growth at 10 uM incubated for 48 hrs by sulforhodamine B assay relative to control; assay type: functional; conditions: IGROV-1, 48 h, read-out: Activity
[18] = Growth inhibition of human OVCAR4 cells assessed as cell growth at 10 uM incubated for 48 hrs by sulforhodamine B assay relative to control; assay type: functional; conditions: OVCAR-4, 48 h, read-out: Activity
[19] = Growth inhibition of human OVCAR8 cells assessed as cell growth at 10 uM incubated for 48 hrs by sulforhodamine B assay relative to control; assay type: functional; conditions: OVCAR-8, 48 h, read-out: Activity
[20] = Growth inhibition of human PC3 cells assessed as cell growth at 10 uM incubated for 48 hrs by sulforhodamine B assay relative to control; assay type: functional; conditions: PC-3, 48 h, read-out: Activity
[21] = Growth inhibition of human DU145 cells assessed as cell growth at 10 uM incubated for 48 hrs by sulforhodamine B assay relative to control; assay type: functional; conditions: DU-145, 48 h, read-out: Activity
MCF7 [22] = assay: Growth inhibition of human MCF7 cells assessed as cell growth at 10 uM incubated for 48 hrs by sulforhodamine B assay relative to control; assay type: functional; conditions: MCF7, 48 h, read-out: Activity
MDA-MB-231 = assay: Growth inhibition of human MDA-MB-231/ATCC cells assessed as cell growth at 10 uM incubated for 48 hrs by sulforhodamine B assay relative to control; assay type: functional; conditions: MDA-MB-231, 48 h, read-out: Activity
[23] = Growth inhibition of human Hs 578T cells assessed as cell growth at 10 uM incubated for 48 hrs by sulforhodamine B assay relative to control; assay type: functional; conditions: read-out: Activity
[24] = Growth inhibition of human BT549 cells assessed as cell growth at 10 uM incubated for 48 hrs by sulforhodamine B assay relative to control; assay type: functional; conditions: BT-549, 48 h, read-out: Activity
T47D = assay: Growth inhibition of human T47D cells assessed as cell growth at 10 uM incubated for 48 hrs by sulforhodamine B assay relative to control; assay type: functional; conditions: read-out: Activity

SMILES	growth at 10 µM (CCRF-CEM) [%]	growth at 10 µM [1] [%]	growth at 10 µM (K562) [%]	growth at 10 µM [2] [%]	growth at 10 µM (SR) [%]	growth at 10 µM (A549) [%]	growth at 10 µM [3] [%]	growth at 10 µM [4] [%]	growth at 10 µM (NCI-H23) [%]	growth at 10 µM (NCI-H322M) [%]	growth at 10 µM [5] [%]	growth at 10 µM [6] [%]	IC50 [7] [nM]	IC50 (MCF7 [8]) [nM]	Activity [9] [V]	growth at 10 µM [10] [%]	growth at 10 µM [11] [%]	growth at 10 µM [12] [%]	growth at 10 µM [13] [%]	growth at 10 µM (U-251) [%]	further results
O=c1ccc2nc(-c3ccccc3)nn(-c3ccccc3)c-2c1	-16.4	-45.5	-39	-6.53	-20.2	73.6	69.5	-33	54.4	66.2	-75.9	-60.5	230	810	-1.75	70.5	23.9	105	93.2	66.2	growth at 10 µM [14]: -51.6%; growth at 10 µM (M14): 51.2%; growth at 10 µM (SK-MEL-2): 44.6%; growth at 10 µM [15]: -97.3%; growth at 10 µM [16]: 30.1%; growth at 10 µM [17]: 2.56%; growth at 10 µM [18]: -40.6%; growth at 10 µM [19]: -2.36%; growth at 10 µM [20]: 43.5%; growth at 10 µM [21]: -95.5%; growth at 10 µM (MCF7 [22]): -66.7%; growth at 10 µM (MDA-MB-231): 76.3%; growth at 10 µM [23]: 75.9%; growth at 10 µM [24]: 90.2%; growth at 10 µM (T47D): -36.5%
O=c1ccc2nc(C(F)(F)F)nn(-c3ccccc3)c-2c1	-0.27	-36.6	-35.1	45.6	-11.3	93	66	35.2	67.7	99.8	-79.7	-63.3	1610	600	-1.55	77.4	91.9	92.8	86.5	69.7	growth at 10 µM [14]: 4.3%; growth at 10 µM (M14): 62.1%; growth at 10 µM (SK-MEL-2): 78.3%; growth at 10 µM [15]: 35.6%; growth at 10 µM [16]: 66.4%; growth at 10 µM [17]: 71.7%; growth at 10 µM [18]: 79.8%; growth at 10 µM [19]: 73.1%; growth at 10 µM [20]: 84.5%; growth at 10 µM [21]: 40.5%; growth at 10 µM (MCF7 [22]): -49.3%; growth at 10 µM (MDA-MB-231): 61%; growth at 10 µM [23]: 74%; growth at 10 µM [24]: 69.2%; growth at 10 µM (T47D): -40.5%
